One assay deals with mouse myoblasts (C2C12). Nature of the assay: Atrophy of mouse myoblasts (C2C12) induced by C26 cell supernatant, myotube diameter by HE staining. Format: cell-based. The conditions noted are these: Mus musculus, 48 hours treatment, C26 supernatant-induced C2C12 myotubes, read-out: Myotube atrophy reversal rate. The procedure:
C2C12 cells were inoculated in 24-well plates. The culture system was high-glucose DMEM medium containing 10% FBS with 1% penicillin-streptomycin. The plates were placed in a 5% CO2, 37° C. environment. When the cell growth density reached 50%-60%, the culture system was replaced with high-glucose DMEM culture medium containing 2% HS with 1% penicillin-streptomycin. Fresh 2% HS differentiation medium was replaced every 48 hours, and the cells were differentiated into mature cells on the 5th or 6th day. Additionally, C26 cells were inoculated in T75 flasks. The culture system was high-glucose DMEM medium containing 10% FBS with 1% penicillin-streptomycin. The flasks were placed in a 5% CO2, 37° C. environment. When subculturing, the cells were subcultured at 6 million cells/flask. After culturing in 20 ml of culture medium for 48 hours, the supernatant was collected and centrifuged at 1000 rpm for 3 mins. The supernatant was collected and centrifuged at 4000 rpm for 10 mins to obtain the C26 supernatant. The C26 supernatant and 2% HS differentiation solution were mixed at a ratio of 1:1 (volume ratio) as the muscle atrophy induction solution. Except for the control group in which 2% HS differentiation solution was added, for the other groups, an equivalent amount of muscular atrophy induction solution was added. One group was used as the model group, and the other groups were used as the treatment and experimental groups.
The diameter of myotubes after differentiation of mouse myoblasts (C2C12) was evaluated by using the diameter measurement method. The method for measuring the diameter of myotubes was as follows: after 48 hours of treatment, the myotubes were fixed with a fixative (anhydrous ethanol: formaldehyde: glacial acetic acid (volume ratio)=20:2:1) for more than 1 h and stained. The staining method used in the experiment is hematoxylin-eosin staining, referred to as HE staining for short. Hematoxylin stain is alkaline and positively charged, and it can easily bind to the negatively charged and acidic deoxyribonucleic acid (DNA) in the cell nucleus through ionic bonds to stain it blue; eosin is an acidic dye that dissociates into negatively charged anions in water, and it can easily bind to the positively charged amino groups of proteins in the cytoplasm to stain it red. The stained cells were placed under a high-power microscope to take pictures (magnification: 200 times), and the diameter of myotube cells was statistically analyzed using image J software. The muscle atrophy reversal rate was calculated according to the following formula: Muscle atrophy reversal rate=(average value of myotubes in the treatment group-average value of myotubes in the model group)/(average value of myotubes in the control group-average value of myotubes in the model group)×100%

For assay [1], the system named is C26 tumor cancer cachexia model, BALB/c mice. Nature of the assay: Cancer cachexia animal model, compounds 3 and 10 (C26 tumor, BALB/c mice, 10 mg/kg ip). Format: in vivo, mouse. The conditions noted are these: 10 mg/kg ip daily; for Cross-sectional area of gastrocnemius fibers: H&E sections; for Muscle grasp force: p<0.05. Here is the method: C26 cells were inoculated in T75 flasks. The culture system was 1640 medium containing 10% FBS with 1% penicillin-streptomycin. The flasks were placed in a 5% CO2, 37° C. environment for expansion culture. The cells were collected by centrifugation at 1000 rpm for 3 mins, and the culture medium was washed away with ice-cold PBS buffer, and a cell suspension of 10 million/ml was prepared. The cell suspension was inoculated into the left and right armpits of BALB/c mice at a concentration of 1 million for tumor development. When the tumor volume increased to 1000 mm^3, the tumor was removed and homogenized with 3 ml of ice saline/g to obtain a tumor tissue suspension. The mice to be inoculated were divided into groups according to their weight, and the cell suspension was inoculated into the left armpit of BALB/c mice at an inoculation volume of 100 μl per mouse. Treatment was started from the day after inoculation. Compounds 3 and 10 were dissolved in 3% DMSO, 2% Solutol and 95% saline in sequence to form a uniform solution with the required concentration. The solution was prepared and used daily. The dose was 10 mg/kg and the compound was administered by intraperitoneal injection (ip). The body weight, temperature, tumor size and food intake of mice were monitored daily. […] In the middle stage of the experiment, the weight of the mice in the model group began to decrease, which was considered to have entered the mid-cachexia stage. When the tumor volume of the mice in the model group reached 2.0× 103 mm^3 or their body weight decreased by 10%, they were considered to have entered the late-cachexia stage. The muscle grasp force of the mice's forelimbs was tested at these three stages. At the end of the experiment, the mice were killed by cervical dislocation and the gastrocnemius, tibialis anterior, right hind limb and tumor samples were obtained, and the sample weights were measured. Gastrocnemius tissue of appropriate size was obtained, and H&E stained tissue sections were prepared through processes such as fixation, embedding, slicing, staining. At least 10 fields of view were randomly selected for slices of different groups for photographing, and the cross-sectional areas of all muscle fibers in the photographs were measured and statistically analyzed.
(§1) The method for detecting muscle grasp force was as follows: The muscle grasp force of mice was tested on the 3rd day (pre-cachexia stage), the 11th day (mid-cachexia stage) and the 16th day (late-cachexia stage) of the experiment. The mouse was steadily placed on the YLS-13A Mouse and Rat Grasp Force Tester by using the right hand, so that its forelimbs could tightly grasp the gripping disk, and the gripping disk was stabilized by using the left hand moving forward. When the left hand slowly released the gripping disk, the right hand immediately and slowly pulled the mouse's tail backwards until its forelimbs were separated from the gripping disk. The test was repeated 8 times for each mouse, and the mean value of the 8 measurements was used as the skeletal muscle strength index of each mouse.

A further assay addresses ActRIIB (Homo sapiens, UniProt Q13705). Nature of the assay: ActRIIB inhibitory activity, ADP-Glo assay kit. Format: biochemical. The note with it: ATP 25 μM, substrate 0.1 mg/mL, ActRIIB 20.0 ng/μL. Here is the method:
The ATP and substrate concentrations recommended by the ADP-Glo™ assay kit were used, which were 25 μM and 0.1 mg/mL, respectively, and a series of isocratic final ActRIIB concentrations were set up, which were 0, 0.47, 0.94, 1.88, 3.75, 7.5, 15, 30, and 60 ng/μL, respectively. According to the […] values obtained in the experiment, an ActRIIB concentration titration curve was drawn. The ActRIIB concentrations corresponding to the ratio of the signal value to the background value (i.e., signal-to-background ratio, SBR) in the range of 5-10 times are suitable for screening compounds for inhibition of ActRIIB activity. From the ActRIIB concentration titration curve, the final ActRIIB concentrations corresponding to SB5 and SB10 were calculated to be 14.9 and 23.7 ng/μL, respectively. Finally, a final concentration of 20.0 ng/μL was selected as the experimental concentration for screening compounds for their inhibitory activity against ActRIIB. The inhibitory efficiency of 7-azaindole compounds on ActRIIB was detected at concentrations of 0.1, 1, 10, and 100 nM, respectively.
Background: In ADP-Glo the light output rises with the ADP produced.

The test system of assay [2] is C26 tumor cancer cachexia model, BALB/c mice. Nature of the assay: Cancer cachexia animal model, compound 2 (C26 tumor, BALB/c mice, 5 mg/kg ig). It is filed as in vivo, mouse. The conditions noted are these: 5 mg/kg ig daily. Here is the method:
C26 cells were inoculated in T75 flasks. The culture system was 1640 medium containing 10% FBS with 1% penicillin-streptomycin. The flasks were placed in a 5% CO2, 37° C. environment for expansion culture. The cells were collected by centrifugation at 1000 rpm for 3 mins, and the culture medium was washed away with ice-cold PBS buffer, and a cell suspension of 10 million/ml was prepared. The cell suspension was inoculated into the left and right armpits of BALB/c mice at a concentration of 1 million for tumor development. When the tumor volume increased to 1000 mm^3, the tumor was removed and homogenized with 3 ml of ice saline/g to obtain a tumor tissue suspension. The mice to be inoculated were divided into groups according to their weight, and the cell suspension was inoculated into the left armpit of Balb/c mice at an inoculation volume of 100 μl per mouse. Treatment was started from the day after inoculation. Compound 2 was dissolved in 3% DMSO, 2% Solutol and 95% saline in sequence to form a uniform solution with the required concentration. The solution was prepared and used daily. The dose was 5 mg/kg and the compound was administered by the intragastric (ig) route. The body weight, temperature, tumor size and food intake of mice were monitored daily. […] When the tumor volume of mice in the model group reached 2.0× 103 mm^3 or their body weight decreased by 10%, they were considered to have entered the cachexia stage. The muscle grasp force of the mice's forelimbs was tested at these two stages. […] At the end of the experiment, the mice were killed by cervical dislocation and the gastrocnemius, tibialis anterior, right hind limb and tumor samples were obtained, and the sample weights were measured.
as §1, with “5th” for “3rd”, “(pre-cachexia” for “(pre-cachexia stage), the 11th day (mid-cachexia”, “22nd” for “16th”, “(cachexia” for “(late-cachexia”

This note sets out measurements from patent US20260193255A1, “7-AZAINDOLE COMPOUNDS, PREPARATION METHOD THEREFOR, AND USE THEREOF” (Fudan University, priority 2022, published 2026).

Structures are written as SMILES.

ActRIIB, sequence (Q13705 19-512): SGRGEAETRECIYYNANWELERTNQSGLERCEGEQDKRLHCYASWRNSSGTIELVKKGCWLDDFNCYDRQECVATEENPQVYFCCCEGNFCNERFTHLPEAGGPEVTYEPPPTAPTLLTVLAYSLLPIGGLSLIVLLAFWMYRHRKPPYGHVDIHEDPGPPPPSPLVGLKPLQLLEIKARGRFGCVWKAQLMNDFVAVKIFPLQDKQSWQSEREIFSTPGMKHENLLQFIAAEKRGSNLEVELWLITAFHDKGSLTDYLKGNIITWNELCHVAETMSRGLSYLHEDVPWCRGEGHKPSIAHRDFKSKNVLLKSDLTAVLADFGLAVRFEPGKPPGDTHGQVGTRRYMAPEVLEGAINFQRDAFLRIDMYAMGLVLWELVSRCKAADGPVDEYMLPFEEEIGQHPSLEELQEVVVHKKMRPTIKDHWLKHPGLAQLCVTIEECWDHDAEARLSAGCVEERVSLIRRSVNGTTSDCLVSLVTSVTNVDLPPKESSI

Turning to `CN1CCN(c2ccc(-c3cnc4[nH]cc(-c5ccc6[nH]ccc6c5)c4c3)cc2)CC1` [Compound 3, 3-(1H-indol-5-yl)-5-[4-(4-methylpiperazin-1-yl)phenyl]-1H-pyrrolo[2,3-b]pyridine], the inhibition at 2.5 µM in the assay with mouse myoblasts (C2C12) came out at 90.9%. Besides, in assay [1], the “Average accumulative food intake vs C26 tumor model group” value is listed as “slightly higher than that in the C26 tumor model group”, the “Gastrocnemius atrophy (muscle mass)” value is reported as “cannot significantly alleviate the gastrocnemius atrophy in cachectic mice”, the “Right hind limb weight (skeletal muscle atrophy)” value (from here on “Right hind limb weight”) is listed as “improve skeletal muscle atrophy in cachectic mice to a certain extent” and the “Tibialis anterior atrophy (muscle mass)” value was “cannot significantly alleviate the tibialis anterior atrophy in cachectic mice”. Also, in assay [1], the “Tumor volume vs C26 tumor model group” value is reported as “slightly reduced compared with the C26 tumor model group, but there was no significant difference”; the “Weight loss (tumor-bearing and tumor-free body weight) vs C26 tumor model group” value was “alleviate the weight loss of mice to some extent”; the “Cross-sectional area of gastrocnemius fibers” value is reported as “significantly alleviate the reduction in the cross-sectional area of the gastrocnemius in cachectic mice”; the Muscle grasp force result is given as “significantly enhance the muscle grasp force of cachexia mice”. Besides, at ActRIIB, half-maximal inhibition (IC50) was put at 1.1 nM.
On to `CN1CCN(c2ccc(-c3cnc4[nH]cc(-c5cc[nH]n5)c4c3)cc2)CC1` [Compound 2, 3-(1H-pyrazol-3-yl)-5-[4-(4-methylpiperazin-1-yl)phenyl]-1H-pyrrolo[2,3-b]pyridine], for which, in assay [2], the “Average accumulative food intake vs C26 tumor model group” value was “slightly higher than that in the C26 tumor model group”; the “Right hind limb weight” value is reported as “improve skeletal muscle atrophy in cachectic mice to a certain extent”; the “Tumor volume vs C26 tumor model group” value is reported as “slightly reduced compared with the C26 tumor model group, but there was no significant difference”. The Muscle grasp force result in assay [2] (cachexia stage, p=0.06) is given as “significantly enhance the muscle grasp force of cachexia mice”. Further, in assay [2] (p<0.05), the “Gastrocnemius mass (gastrocnemius atrophy)” value is reported as “significantly alleviate the gastrocnemius atrophy in cachectic mice” and the “Tibialis anterior mass (tibialis anterior atrophy)” value is listed as “significantly alleviate the tibialis anterior atrophy in cachectic mice”. In addition, in assay [2] (p<0.05 at end of experiment), the “Weight loss (tumor-bearing and tumor-free body weight) vs C26 tumor model group” value is on record as “significantly alleviate the weight loss of mice”. Further, in the assay on mouse myoblasts (C2C12), the inhibition at 1.25 µM stood at 69.2%, the inhibition at 2.5 µM was 97.6% and the inhibition at 5 µM was determined as 131%. For the same compound, the IC50 – broadly, the point on the concentration scale where inhibition reaches its midpoint – on ActRIIB came out at 1.8 nM.
`c1cc(-c2c[nH]c3ncc(-c4ccc(OCCN5CCOCC5)cc4)cc23)n[nH]1` [Compound 10, 3-(1H-pyrazol-3-yl)-5-(4-[[2-(1,4-oxazacyclohexan-4-yl)ethyl]oxy]phenyl)-1H-pyrrolo[2,3-b]pyridine]: in the assay with mouse myoblasts (C2C12), the inhibition at 1.25 µM was determined as 42.4%, the inhibition at 2.5 µM was 58.9% and the inhibition at 5 µM came out at 100%. For the same compound, in assay [1], the “Average accumulative food intake vs C26 tumor model group” value was “slightly higher than that in the C26 tumor model group”, the “Gastrocnemius atrophy (muscle mass)” value is on record as “cannot significantly alleviate the gastrocnemius atrophy in cachectic mice”, the “Right hind limb weight” value was “improve skeletal muscle atrophy in cachectic mice to a certain extent” and the “Tibialis anterior atrophy (muscle mass)” value was “cannot significantly alleviate the tibialis anterior atrophy in cachectic mice”. For the same compound, in assay [1], the “Tumor volume vs C26 tumor model group” value is on record as “slightly reduced compared with the C26 tumor model group, but there was no significant difference”; the “Weight loss (tumor-bearing and tumor-free body weight) vs C26 tumor model group” value is recorded as “significantly alleviate the weight loss of mice”; the “Cross-sectional area of gastrocnemius fibers” value was “significantly alleviate the reduction in the cross-sectional area of the gastrocnemius in cachectic mice”; the Muscle grasp force entry is recorded as “significantly enhance the muscle grasp force of cachexia mice”. It took 4 nM to reach half-maximal inhibition against ActRIIB (IC50).
